# Earlier results, collected in publication PMC4078388 (EJNMMI Research, 2014).
# System: INS-1 tumour
# Details: Balb/c nude mice, 1 h after injection
# Excerpt: One additional challenge when imaging β-cells is the limited amount of overall GLP-1 receptors available which requires the administration of low amounts of peptide with a high specific activity in order to avoid receptor blocking [[13]]. One potential way to further increase the specific activity and therefore reduce the amount of tracer necessary to obtain a clear image is to attach several chelators to the peptide allowing more radioactivity per molecule.
substance,measurement,value
[Lys^40(^68Ga-DOTA)]exendin-3,uptake in INS-1 tumour,8.9 ± 3.1 %iA/g
same,uptake in the pancreas,6.7 ± 1.8 %iA/g
